Measurements from PubChem BioAssay AID328 (DTP/NCI, 2004).
Where “and” joins values, the source holds several entries; their conditions need not be identical. Equal entries are not always repeated. Inconclusive results and toxic doses are left out.

System: BDF1 mice, P388 leukemia ip, median survival T/C
Assay: NCI In Vivo Anticancer Drug Screen. Data for tumor model P388 Leukemia (intraperitoneal) in B6D2F1 (BDF1) mice
Conditions: endpoint: median survival time, higher = longer survival
Outline: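 Compound-treated tumour-bearing mice were compared with vehicle-treated controls. Survival was recorded, and the value is the treated-group measurement divided by the control-group measurement (T/C).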

[1] = dose: 50.0 mg/kg/injection, schedule: Q01DX009 (ip), vehicle: saline
[2] = dose: 50.0 mg/kg/injection, schedule: Q01DX009 (ip), vehicle: water
[3] = dose: 50.0 mg/kg/injection, schedule: Q01DX009 (ip), vehicle: saline with Tween-80
[4] = dose: 100.0 mg/kg/injection, schedule: Q01DX009 (ip), vehicle: saline with Tween-80
[5] = dose: 200.0 mg/kg/injection, schedule: Q01DX009 (ip), vehicle: saline with Tween-80
[6] = dose: 400.0 mg/kg/injection, schedule: Q01DX009 (ip), vehicle: saline with Tween-80
[7] = dose: 25.0 mg/kg/injection, schedule: Q01DX009 (ip), vehicle: saline with Tween-80
[8] = dose: 6.25 mg/kg/injection, schedule: Q01DX009 (ip), vehicle: saline with Tween-80

For C1CCN(NC2=NCCO2)CC1, the T/C (dose: 12.5 mg/kg/injection, schedule: Q01DX009 (ip), vehicle: saline) was 95 % of control, the T/C (dose: 25.0 mg/kg/injection, schedule: Q01DX009 (ip), vehicle: saline) was 108 % of control and the T/C [1] was 100 % of control.
For O=C(c1ccccc1)c1c(-c2ccccc2)c(C(=O)c2ccccc2)c2ccccc2c1Cl, the T/C (dose: 12.5 mg/kg/injection, schedule: Q01DX009 (ip), vehicle: water) was 102 % of control, the T/C (dose: 25.0 mg/kg/injection, schedule: Q01DX009 (ip), vehicle: water) was 113 % of control and the T/C (dose: 25.0 mg/kg/injection, schedule: Q04DX003 (ip), vehicle: water) was 114 % of control. For the same molecule, the T/C [2] was 102 % of control, the T/C (dose: 50.0 mg/kg/injection, schedule: Q04DX003 (ip), vehicle: water) was 104 % of control and the T/C (dose: 100.0 mg/kg/injection, schedule: Q01DX009 (ip), vehicle: water) was 109 % of control. For the same molecule, the T/C (dose: 100.0 mg/kg/injection, schedule: Q04DX003 (ip), vehicle: water) was 96 % of control, the T/C (dose: 200.0 mg/kg/injection, schedule: Q01DX009 (ip), vehicle: water) was 96 % of control and the T/C (dose: 200.0 mg/kg/injection, schedule: Q04DX003 (ip), vehicle: water) was 100 % of control. For the same molecule, the T/C (dose: 400.0 mg/kg/injection, schedule: Q01DX009 (ip), vehicle: water) was 102 % of control and the T/C (dose: 400.0 mg/kg/injection, schedule: Q04DX003 (ip), vehicle: water) was 98 % of control.
In the case of N=C(N)c1nn(C2OC(CO)C(O)C2O)c2ncnc(N)c12 (centres undefined), the T/C (dose: 10.0 mg/kg/injection, schedule: Q01DX009 (ip), vehicle: saline) is reported as 114 % of control and 117 % of control, the T/C (dose: 10.0 mg/kg/injection, schedule: Q04DX003 (ip), vehicle: saline) is reported as 109 % of control and 118 % of control and the T/C (dose: 20.0 mg/kg/injection, schedule: Q01DX009 (ip), vehicle: saline) is reported as 117 % of control and 124 % of control. The T/C (dose: 20.0 mg/kg/injection, schedule: Q04DX003 (ip), vehicle: saline) was 122 % of control, the T/C (dose: 40.0 mg/kg/injection, schedule: Q04DX003 (ip), vehicle: saline) was 104 % of control and the T/C (dose: 80.0 mg/kg/injection, schedule: Q04DX003 (ip), vehicle: saline) was 95 % of control.
In the case of CCC1=C(c2ccc(OC)cc2)CCC(C(=O)O)C1C (centres undefined), the T/C (dose: 3.0 mg/kg/injection, schedule: Q01DX010 (sc), vehicle: steriod suspending solution) is reported as 90 % of control, the T/C (dose: 6.0 mg/kg/injection, schedule: Q01DX010 (sc), vehicle: steriod suspending solution) is reported as 105 % of control and the T/C (dose: 12.0 mg/kg/injection, schedule: Q01DX010 (sc), vehicle: steriod suspending solution) is reported as 100 % of control. The T/C (dose: 24.0 mg/kg/injection, schedule: Q01DX010 (sc), vehicle: steriod suspending solution) was 95 % of control, the T/C (dose: 48.0 mg/kg/injection, schedule: Q01DX010 (sc), vehicle: steriod suspending solution) was 100 % of control and the T/C (dose: 96.0 mg/kg/injection, schedule: Q01DX010 (sc), vehicle: steriod suspending solution) was 110 % of control. For the same molecule, the T/C (dose: 192.0 mg/kg/injection, schedule: Q01DX010 (sc), vehicle: steriod suspending solution) was 105 % of control.
In the case of C#C/C=C/CC1O/C(=C(\Br)CC)C/C=C\CC1Cl (centres undefined), the T/C (dose: 12.5 mg/kg/injection, schedule: Q01DX009 (ip), vehicle: other) is reported as 99 % of control, the T/C (dose: 25.0 mg/kg/injection, schedule: Q01DX009 (ip), vehicle: other) is reported as 114 % of control and the T/C (dose: 50.0 mg/kg/injection, schedule: Q01DX009 (ip), vehicle: other) is reported as 99 % of control.
Nc1ccc(Cl)c(Cl)c1 was tested, and the T/C [3] was 98 % of control, the T/C [1] was 106 % of control and the T/C [4] was 104 % of control. The T/C (dose: 100.0 mg/kg/injection, schedule: Q01DX009 (ip), vehicle: saline) was 118 % of control and the T/C [5] was 104 % of control.
NC(=O)c1ccc(-c2c3ccccc3cc3c2ccc2ccccc23)cc1 was tested, and the T/C [3] was 95 % of control, the T/C [4] was 89 % of control and the T/C [5] was 89 % of control. For the same molecule, the T/C [6] was 106 % of control.
In the case of CC(=O)Nc1ccc(S(=O)(=O)Nc2ccc([N+](=O)[O-])cc2)cc1, the T/C [7] is reported as 104 % of control, the T/C [2] is reported as 95 % of control and the T/C [4] is reported as 97 % of control. For the same molecule, the T/C [5] was 97 % of control and the T/C [6] was 106 % of control.
CN(C)c1ccc(/C=C\c2ccnc3c([N+](=O)[O-])cccc23)cc1 was tested, and the T/C [3] was 115 % of control, the T/C [4] was 97 % of control and the T/C [5] was 92 % of control.
With O=C1c2ccccc2C(=O)c2c(Nc3ccc(CCO)cc3)ccc(O)c21 the T/C (dose: 100.0 mg/kg/injection, schedule: Q04DX003 (ip), vehicle: Klucel (hydroxypropylcellulose) (HPC)) was 100 % of control, the T/C (dose: 200.0 mg/kg/injection, schedule: Q04DX003 (ip), vehicle: Klucel (hydroxypropylcellulose) (HPC)) was 100 % of control and the T/C (dose: 400.0 mg/kg/injection, schedule: Q04DX003 (ip), vehicle: Klucel (hydroxypropylcellulose) (HPC)) was 111 % of control.
In the case of COc1ccc2[nH]c3c(C)c4cc[n+](C)cc4c(C)c3c2c1, the T/C [8] is reported as 99 % of control.
For CCOC(=O)CCCN(c1sc(C)c(-c2ccccc2)c1C(=O)OCC)S(=O)(=O)c1ccc(C)cc1, the T/C [4] was 109 % of control and the T/C [5] was 90 % of control.
In the case of CC1CCc2c(ccc3ccccc23)C1=O (centres undefined), the T/C (dose: 100.0 mg/kg/injection, schedule: Q01DX009 (ip), vehicle: gum acacia) is reported as 92 % of control, the T/C (dose: 100.0 mg/kg/injection, schedule: Q04DX003 (ip), vehicle: gum acacia) is reported as 107 % of control and the T/C (dose: 200.0 mg/kg/injection, schedule: Q01DX009 (ip), vehicle: gum acacia) is reported as 100 % of control. The T/C (dose: 200.0 mg/kg/injection, schedule: Q04DX003 (ip), vehicle: gum acacia) was 103 % of control, the T/C (dose: 400.0 mg/kg/injection, schedule: Q01DX009 (ip), vehicle: gum acacia) was 100 % of control and the T/C (dose: 400.0 mg/kg/injection, schedule: Q04DX003 (ip), vehicle: gum acacia) was 89 % of control.
For Cc1c(N)nc(C(CC(N)=O)NCC(N)C(N)=O)nc1C(=O)NC(C(=O)NC(C)C(O)C(C)C(=O)NC(C(=O)NCCc1nc(-c2nc(C(=O)NCCC[S+](C)C)cs2)cs1)C(C)O)C(OC1OC(CO)C(O)C(O)C1OC1OC(CO)C(O)C(OC(N)=O)C1O)c1cnc[nH]1 (centres undefined), the T/C (dose: 0.5 mg/kg/injection, schedule: Q01DX009 (ip), vehicle: saline) was 115 % of control, the T/C (dose: 1.0 mg/kg/injection, schedule: Q01DX009 (ip), vehicle: saline) was 115 % of control and 116 % of control and the T/C (dose: 2.0 mg/kg/injection, schedule: Q01DX009 (ip), vehicle: saline) was 120 % of control. The T/C (dose: 8.0 mg/kg/injection, schedule: Q01DX009 (ip), vehicle: saline) was 163 % of control, the T/C (dose: 16.0 mg/kg/injection, schedule: Q01DX009 (ip), vehicle: saline) was 90 % of control and 93 % of control and 118 % of control and the T/C (dose: 32.0 mg/kg/injection, schedule: Q01DX009 (ip), vehicle: saline) was 100 % of control.
With N#CN=CN1CCN(c2ccccn2)CC1 the T/C [3] was 91 % of control, the T/C [4] was 90 % of control and the T/C [5] was 93 % of control.
For COc1c(Br)cc(Br)cc1/C=C/[N+](=O)[O-], the T/C [8] was 114 % of control, the T/C (dose: 12.5 mg/kg/injection, schedule: Q01DX009 (ip), vehicle: saline with Tween-80) was 114 % of control and the T/C [7] was 116 % of control.
In the case of O=C1c2ccccc2C2N1CCCN2C(=O)c1sc2ccccc2c1Cl (centres undefined), the T/C [3] is reported as 88 % of control, the T/C [4] is reported as 86 % of control and the T/C [5] is reported as 94 % of control.
With c1ccc(-n2nc3c(c2-c2ccc(OCCN4CCCC4)cc2)CCCc2ccccc2-3)cc1 the T/C (dose: 25.0 mg/kg/injection, schedule: Q04DX003 (ip), vehicle: saline with Tween-80) was 120 % of control, the T/C (dose: 50.0 mg/kg/injection, schedule: Q04DX003 (ip), vehicle: saline with Tween-80) was 120 % of control and the T/C (dose: 100.0 mg/kg/injection, schedule: Q04DX003 (ip), vehicle: saline with Tween-80) was 100 % of control.
For O=C(Cn1ccc(O)cc1=O)c1ccc(Cl)s1, the T/C [4] was 98 % of control, the T/C [5] was 93 % of control and the T/C [6] was 104 % of control.
With O=C(O)C1CSC(c2ccccc2)N1 (centres undefined) the T/C [7] was 111 % of control, the T/C [4] was 109 % of control and the T/C [5] was 100 % of control.
CC(C)c1ccc(O)c(=O)cc1 was tested, and the T/C (dose: 40.0 mg/kg/injection, schedule: Q01DX010 (ip), vehicle: carboxymethylcellulose (CMC)) was 95 % of control, the T/C (dose: 80.0 mg/kg/injection, schedule: Q01DX010 (ip), vehicle: carboxymethylcellulose (CMC)) was 100 % of control and the T/C (dose: 160.0 mg/kg/injection, schedule: Q01DX010 (ip), vehicle: carboxymethylcellulose (CMC)) was 100 % of control.
With CCOP(=O)(C/C(=N\Nc1ccc([N+](=O)[O-])cc1[N+](=O)[O-])c1ccccc1)c1ccccc1 (centres undefined) the T/C (dose: 25.0 mg/kg/injection, schedule: Q01DX001 (ip), vehicle: saline with Tween-80) was 100 % of control, the T/C (dose: 50.0 mg/kg/injection, schedule: Q01DX001 (ip), vehicle: saline with Tween-80) was 104 % of control and the T/C (dose: 100.0 mg/kg/injection, schedule: Q01DX001 (ip), vehicle: saline with Tween-80) was 95 % of control.
